Data on 2 compounds can be found in patent publication EP2605769B1, “BENZOQUINONE DERIVATIVES FOR THE TREATMENT OF MITCHONDRIAL EYE DISEASES” (Santhera Pharmaceuticals (Schweiz) AG, priority 2010, dated 2012).

One experiment has as its system RGC-5 cells. In words: Cellular viability of RGC-like cells challenged with rotenone (cellular ATP content). Type of experiment: cell-based. The conditions noted are these: 1 day-preincubation, 100 µM. An excerpt:
Mitochondrial impairment directly influences cellular survival. Especially cells and tissues that display high level of energy consumption, such as neurons are especially vulnerable. Consequently, these cells and tissues are likely to be the most responsive to a strategy that targets mitochondrial function. We addressed this possibility by assessing the viability of the retinal ganglion cell line RGC-5, challenged with the mitochondrial complex I inhibitor rotenone, in the absence or presence of compounds.
Experimental procedure: RGC-5 cells were cultured under ambient conditions (37 °C, 5% CO2, 90% humidity) in DMEM (1g/l glucose; 10% fetal bovine serum (FBS), Penicillin-Streptomycin-Glutamine (PSG)). RGC-5 cells will be seeded in DMEM (1g/l glucose; 2% FBS) into BD Falcon™ cell culture plates. Before rotenone- induced complex I inhibition, the cells were pre-treated with Compound IA or vehicle. For Compound IA co-treatment with rotenone, new compound was added together with rotenone-containing cell culture media. After the rotenone exposure, the media was exchanged and replaced by Hanks' BSS for the 1 day post-incubation. The post-treatment media contained Compound IA or vehicle only. As measure of cell viability, cellular ATP content was analyzed using luminescence from ATP-dependent enzymatic oxidation of luciferin by luciferase. RGC-5 cells were be washed with PBS and lysed in lysis buffer (4 mM EDTA, 0.2% Triton X-100) at room temperature. In 96-well plates, ATP measurement buffer (25 mM HEPES pH 7.25, 300 µM D-luciferin, 5 µg/ml firefly luciferase, 75 µM DTT, 6.25 mM MgCl2, 625 µM EDTA and 1 mg/ml BSA) was combined with lysate to start the reaction. Luminescence was quantified immediately using a multimode plate reader (Tecan M1000, Tecan iControl 1.6 software; Tecan Austria GmbH, Grödig, Austria). Effects on cell viability were defined as the percentage of compound-mediated change in cell viability relative to rotenone-induced reduction in cell viability. Data are presented as mean ± SEM. Paired Student's t-test was used to compare non-normalized data. Statistical significance was set at p≤0.05(*), p≤0.01(**) and p≤0.001(***).

The test system of experiment [1] is Primary human fibroblasts C4 (GM04545, Coriell). In words: Lipid peroxidation assay (BODIPY 581/591-C11). The experiment is classed as cell-based. The conditions noted are these: 10 µM test compound, 72 hours. The text has this:
Lipid peroxidation is a well defined mechanism of cellular damage in both animals and plants that occurs during aging and in some disease states. This process proceeds by a free radical chain reaction mechanism. […] If not terminated fast enough, lipid peroxidation damages cellular membranes, affect membrane fluidity and also mitochondrial function. In addition, end products of lipid peroxidation may be mutagenic and carcinogenic. For instance, the reactive end product of lipid peroxidation, malondialdehyde, directly causes DNA damage. Experimental Procedure: […] BODIPY 581/591-C11 can be used to measure antioxidant activity in lipid environments by exploiting its loss of fluorescence upon interaction with peroxyl radicals. […] After that, 0.1 ml freshly prepared dye solution (HBSS, containing BODIPY dye 1:1000 from stock solution) was added and cells were returned to the incubator for 30 min. After 2 brief washes with 0.1 ml warmed PBS fluorescence was measured in 50 µl PBS. Fluorescence for 4 individual areas per well were individually quantified at two wavelengths (Ex1: 490, Em1: 600; Ex2: 490, Em2: 530, bandwith 10nm, 50 flashes, 400Hz frequency, 20 µs integration time).

Structures are written as SMILES.

For the compound `CCCn1cnc2c1c(=O)n(CCCCC(C)=O)c(=O)n2C` [propentophylline, reference compound], the “cell viability, compound-mediated change relative to rotenone-induced reduction, mean (Fig. 2)” value with RGC-5 cells is given as “not significant”; in the experiment on RGC-5 cells (listed as PP), 2.2%; in the experiment with RGC-5 cells (listed as propentophilline), “no significant protective activity”.

Regarding `COC1=C(OC)C(=O)C(CCCCCCCCCCO)=C(C)C1=O` [Compound ID], the Lipid peroxidation in experiment [1] stood at 110%.
